Measured values as given in patent US12721840B2, “Methods of treating glioblastoma multiforme using combination therapy” (MediciNova, Inc., priority 2021, dated 2026).

Key:
[1] = literature statement (Sanftner et al Xenobiotica 2009; Chen et al. 2002); cited from earlier work
[2] = test system: GBM orthotopic tumors (SB28 cells); test: Murine GBM model: survival of mice bearing orthotopic syngeneic SB28 tumors; assay type: in vivo; conditions: syngeneic mouse model, 20,000 SB28 cells; ibudilast 50 mg/kg, anti-PD1 25 μg/dose; 3 intraperitoneal injections 3 days apart from day 7 post-engraftment; n=10 male mice/group; control 17 days
Method: FIGURE depicts results from a murine glioblastoma model (ibudilast treatment in a syngeneic mouse model (20,000 SB28 cells) synergized with anti-PD1), in which mice are treated with ibudilast, an anti-PD-1 antibody, or a combination of ibudilast and an anti-PD-1 antibody. Isotype serves as negative control for the anti-PD-1 antibody and vehicle serves as negative control for ibudilast. Treatment was initiated at day 7 post-engraftment with 3 intraperitoneal injections 3 days apart; n=10 mice/group (male); median survival provided for each group, *p<0.05, **p<0.01, ***p<0.001 as assessed by log-rank (colored stars indicate comparison to each control group).
Mice bearing GBM orthotopic tumors were subjected to treatment with a PD-1 antibody in the presence or absence of ibudilast (or to ibudilast alone) and evaluated for their survival after the start of treatment. More particularly, ibudilast treatment (50 mg/kg) was performed in a syngeneic mouse model (20,000 SB28 cells) synergized with anti-PD1 (25 μg/dose). Treatment was initiated at day 7 post-engraftment with 3 intraperitoneal injections 3 days apart; n=10 mice/group (male).

SMILES: CC(C)C(=O)c1c(C(C)C)nn2ccccc12 [Ibudilast, 3-isobutyryl-2-isopropylpyrazolo[1,5-a]pyridine]
- penetration into the central nervous system (CNS) [1]: good CNS penetration
- median survival [2]: did not impact median survival

SMILES: COc1ccc(C2CNC(=O)C2)cc1OC1CCCC1 (stereo not drawn) [rolipram]
- penetration into the central nervous system (CNS) [1]: poor penetration into the central nervous system
